# Literature values, collected in patent publication US20190328884A1, “COMPOSITIONS AND METHODS OF THEIR USE” (Chemic Laboratories, Inc., priority 2018, published 2019).
# Conditions: in vivo
smiles,measurement,value
NC(=O)N1c2ccccc2C=Cc2ccccc21 [carbamezepine],decrease in white blood cell count,25%
same,increase in the risk of blood dyscrasias,five- to eight
same,patients shown to have a 25% decrease in their white blood cell count,7%
